Data from ChEMBL document CHEMBL5030533, “Mechanistic Investigation of Site-specific DNA Methylating Agents Targeting Breast Cancer Cells” (J Med Chem, 2021).
Active and inactive are the calls of the source. The rule behind the calls is not given here.

Tests used:
[1] = target: T1, Estrogen receptor (Homo sapiens) (UniProt P03372); experiment: Induction of ERalpha nuclear translocation in human MCF7 cells assessed as increase in SLFN5 mRNA expression at 0.1 to 5 nM after 24 hrs by RT-qPCR analysis; assay type: cell-based; conditions: dose 0.1-5 nM
T1 sequence (whole entry): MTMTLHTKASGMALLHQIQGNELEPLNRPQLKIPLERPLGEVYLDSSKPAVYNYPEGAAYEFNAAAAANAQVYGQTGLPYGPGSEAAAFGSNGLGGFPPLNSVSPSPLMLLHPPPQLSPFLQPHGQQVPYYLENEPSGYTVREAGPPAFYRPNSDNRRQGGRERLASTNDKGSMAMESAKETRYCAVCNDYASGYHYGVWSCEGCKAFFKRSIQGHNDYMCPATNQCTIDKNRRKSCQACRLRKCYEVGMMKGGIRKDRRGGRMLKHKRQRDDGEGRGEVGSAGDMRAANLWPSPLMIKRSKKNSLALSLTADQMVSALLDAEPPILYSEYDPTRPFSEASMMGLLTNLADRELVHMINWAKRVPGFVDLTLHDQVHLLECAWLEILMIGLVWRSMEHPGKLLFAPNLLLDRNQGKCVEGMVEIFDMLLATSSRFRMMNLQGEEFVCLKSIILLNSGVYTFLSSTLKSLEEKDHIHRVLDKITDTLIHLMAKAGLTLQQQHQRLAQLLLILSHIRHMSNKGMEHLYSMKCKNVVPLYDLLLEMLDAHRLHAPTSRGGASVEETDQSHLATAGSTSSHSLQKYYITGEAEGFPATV

[2] = target: T1, Estrogen receptor (Homo sapiens); experiment: Induction of ERalpha nuclear translocation in human MCF7 cells assessed as increase in IGFBP4 mRNA expression at 0.1 to 5 nM after 24 hrs by RT-qPCR analysis; assay type: cell-based; conditions: dose 0.1-5 nM
[3] = target: T1, Estrogen receptor (Homo sapiens); experiment: Induction of ERalpha nuclear translocation in human MCF7 cells assessed as increase in RGNEF mRNA expression at 0.1 to 5 nM after 24 hrs by RT-qPCR analysis; assay type: cell-based; conditions: dose 0.1-5 nM
[4] = target: T1, Estrogen receptor (Homo sapiens); experiment: Induction of ERalpha nuclear translocation in human MCF7 cells assessed as increase in RasGRP1 mRNA expression at 0.1 to 5 nM after 24 hrs by RT-qPCR analysis; assay type: cell-based; conditions: dose 0.1-5 nM
[5] = target: T1, Estrogen receptor (Homo sapiens); experiment: Induction of ERalpha nuclear translocation in human MCF7 cells assessed as increase in LRP2 mRNA expression at 0.1 to 5 nM after 24 hrs by RT-qPCR analysis; assay type: cell-based; conditions: dose 0.1-5 nM
[6] = system: Calf thymus DNA; experiment: Displacement of ethidium bromide from calf thymus DNA assessed as relative binding by measuring molar equivalents by spectrofluorometric assay; assay type: nucleic-acid assay; conditions: Bos taurus
[7] = target: T2, Estrogen receptor (Homo sapiens, UniProt P03372); experiment: Binding affinity of ERalpha LBD (unknown origin) incubated for 2 hrs by LanthaScreen TR-FRET assay
T2 sequence (P03372 whole entry): T1 sequence (whole entry)

[8] = target: T1, Estrogen receptor (Homo sapiens); experiment: Induction of ERalpha nuclear translocation in human MCF7 cells assessed as increase in TFF1 mRNA expression at 0.1 to 5 nM after 24 hrs by RT-qPCR analysis; assay type: cell-based; conditions: dose 0.1-5 nM
[9] = target: T1, Estrogen receptor (Homo sapiens); experiment: Induction of ERalpha nuclear translocation in human MCF7 cells assessed as increase in AGR2 mRNA expression at 0.1 to 5 nM after 24 hrs by RT-qPCR analysis; assay type: cell-based; conditions: dose 0.1-5 nM
[10] = system: Calf thymus DNA; experiment: Binding affinity to calf thymus DNA assessed as 3-MeA adduct formation at 100 uM after 24 hrs in presence of netropsin by RP-HPLC analysis relative to control; assay type: nucleic-acid assay; conditions: Bos taurus
[11] = system: MDA-MB-231; experiment: Cytotoxicity against ER negative human MDA-MB-231 cells incubated for 24 hrs in presence of estradiol by MTT assay; assay type: functional, cell-based; conditions: MDA-MB-231, 24 h
[12] = system: MCF7; experiment: Cytotoxicity against human MCF7 cells measured after 16 hrs by MTT assay; assay type: functional, cell-based; conditions: MCF7, 16 h
[13] = system: Calf thymus DNA; experiment: Binding affinity to calf thymus DNA assessed as 3-MeA adduct formation at 25 uM after 24 hrs by RP-HPLC analysis; assay type: nucleic-acid assay; conditions: Bos taurus
[14] = system: Calf thymus DNA; experiment: Binding affinity to calf thymus DNA assessed as 3-MeA adduct formation at 100 uM after 24 hrs by RP-HPLC analysis relative to control; assay type: nucleic-acid assay; conditions: Bos taurus
[15] = system: Calf thymus DNA; experiment: Binding affinity to calf thymus DNA assessed as 3-MeA adduct formation at 50 uM after 24 hrs by RP-HPLC analysis relative to control; assay type: nucleic-acid assay; conditions: Bos taurus
[16] = system: Calf thymus DNA; experiment: Binding affinity to calf thymus DNA assessed as 7-MeG adduct formation at 100 uM after 24 hrs in presence of netropsin by RP-HPLC analysis; assay type: nucleic-acid assay; conditions: Bos taurus
[17] = system: MCF7; experiment: Cytotoxicity against ER positive human MCF7 cells at 100 uM incubated for 24 hrs in presence of estradiol by MTT assay; assay type: functional, cell-based
[18] = system: Calf thymus DNA; experiment: Binding affinity to calf thymus DNA assessed as 7-MeG adduct formation at 50 uM after 24 hrs by RP-HPLC analysis; assay type: nucleic-acid assay; conditions: Bos taurus
[19] = system: Calf thymus DNA; experiment: Binding affinity to calf thymus DNA assessed as 3-MeA adduct formation at 25 uM after 24 hrs by RP-HPLC analysis relative to control; assay type: nucleic-acid assay; conditions: Bos taurus
[20] = system: Calf thymus DNA; experiment: Binding affinity to calf thymus DNA assessed as 3-MeA adduct formation at 100 uM for 24 hrs in presence of netropsin by RP-HPLC analysis; assay type: nucleic-acid assay; conditions: Bos taurus
[21] = system: MCF7; experiment: Cytotoxicity against ER positive human MCF7 cells incubated for 24 hrs in presence of estradiol by MTT assay; assay type: functional, cell-based; conditions: MCF7, 24 h
[22] = system: Calf thymus DNA; experiment: Binding affinity to calf thymus DNA assessed as 7-MeG adduct formation at 100 uM after 24 hrs by RP-HPLC analysis; assay type: nucleic-acid assay; conditions: Bos taurus
[23] = system: Calf thymus DNA; experiment: Binding affinity to calf thymus DNA assessed as 7-MeG adduct formation at 25 uM after 24 hrs by RP-HPLC analysis; assay type: nucleic-acid assay; conditions: Bos taurus
[24] = target: T1, Estrogen receptor (Homo sapiens); experiment: Induction of ERalpha nuclear translocation in human MCF7 cells at 15 nM after 5 hrs by immunofluorescence assay; assay type: cell-based
[25] = system: Calf thymus DNA; experiment: Binding affinity to calf thymus DNA assessed as 3-MeA adduct formation at 50 uM after 24 hrs by RP-HPLC analysis; assay type: nucleic-acid assay; conditions: Bos taurus
[26] = system: Calf thymus DNA; experiment: Binding affinity to calf thymus DNA assessed as 3-MeA adduct formation at 100 uM after 24 hrs by RP-HPLC analysis; assay type: nucleic-acid assay; conditions: Bos taurus
[27] = system: Calf thymus DNA; experiment: Binding affinity to calf thymus DNA assessed as 3-MeA adduct formation at 5000 uM after 24 hrs by RP-HPLC analysis relative to control; assay type: nucleic-acid assay; conditions: Bos taurus
[28] = system: Calf thymus DNA; experiment: Binding affinity to calf thymus DNA assessed as 3-MeA adduct formation at 5000 uM after 24 hrs in presence of netropsin by RP-HPLC analysis; assay type: nucleic-acid assay; conditions: Bos taurus
[29] = system: Calf thymus DNA; experiment: Binding affinity to calf thymus DNA assessed as 3-MeA adduct formation at 5000 uM after 24 hrs by RP-HPLC analysis; assay type: nucleic-acid assay; conditions: Bos taurus
[30] = system: Calf thymus DNA; experiment: Binding affinity to calf thymus DNA assessed as 3-MeA adduct formation at 5000 uM after 24 hrs in presence of netropsin by RP-HPLC analysis relative to control; assay type: nucleic-acid assay; conditions: Bos taurus

SMILES	Activity [1]	Activity [2]	Activity [3]	Activity [4]	Activity [5]	Activity [6]	Activity [8]	Activity [9]	Activity [10]	EC50 [12]	Activity [13]	Activity [14]	Activity [15]	Activity [16]	Activity [18]	Activity [19]	Activity [20]	Activity [22]	Activity [23]	Activity [25]	other results
Cn1cc(NC(=O)c2cc(NC(=O)CCS(C)(=O)=O)cn2C)cc1C(=O)NCCC(=O)NCCCCCC[C@@H]1Cc2cc(O)ccc2[C@H]2CC[C@]3(C)[C@@H](O)CC[C@H]3[C@H]12	Active	Active	Active	Active	inactive	2.54 Mequiv	Active	Active													IC50 [7]: 0.00148 µM
COS(=O)(=O)CCC(=O)Nc1cc(C(=O)Nc2cc(C(=O)NCCC(=O)NCCCCCC[C@@H]3Cc4cc(O)ccc4[C@H]4CC[C@]5(C)[C@@H](O)CC[C@H]5[C@H]34)n(C)c2)n(C)c1									95%	39.4 µM	6520 µmol	97%	98%	409 µmol	253 µmol	99%	769 µmol	495 µmol	93 µmol		EC50 [11]: 160 µM; Activity [17]: inactive; EC50 [21]: 50.7 µM
COS(=O)(=O)CCC(=O)Nc1cc(C(=O)Nc2cc(C(=O)NCC(=O)NCCCCCC[C@@H]3Cc4cc(O)ccc4[C@H]4CC[C@]5(C)[C@@H](O)CC[C@H]5[C@H]34)n(C)c2)n(C)c1									91%	142 µM	1620 µmol	83%	86%	482 µmol	404 µmol	89%	180 µmol	404 µmol	194 µmol	1760 µmol	Activity [24]: Active; Activity [26]: 1920 µmol
CCCNC(=O)c1cc(NC(=O)c2cc(NC(=O)CCS(=O)(=O)OC)cn2C)cn1C									95%	85 µM	4600 µmol	95%	95%	714 µmol	399 µmol	96%		774 µmol	185 µmol	8230 µmol	Activity [17]: Active
COS(=O)(=O)CCC(=O)Nc1cc(C(=O)Nc2cc(C(=O)NCCCC(=O)NCCCCCC[C@@H]3Cc4cc(O)ccc4[C@H]4CC[C@]5(C)[C@@H](O)CC[C@H]5[C@H]34)n(C)c2)n(C)c1									86%	89.5 µM	699 µmol	79%	82%	420 µmol	204 µmol	83%	173 µmol	318 µmol	147 µmol	922 µmol	Activity [26]: 1210 µmol
Cn1cc(NC(=O)c2cc(NC(=O)CCS(C)(=O)=O)cn2C)cc1C(=O)NCCCC(=O)NCCCCCC[C@@H]1Cc2cc(O)ccc2[C@H]2CC[C@]3(C)[C@@H](O)CC[C@H]3[C@H]12	Active	Active	Active	Active	Active	4.43 Mequiv	Active	Active		146 µM											
COS(C)(=O)=O																					Activity [27]: 9%; Activity [28]: 1240 µmol; Activity [29]: 1800 µmol; Activity [30]: 31%
Cn1cc(NC(=O)c2cc(NC(=O)CCS(C)(=O)=O)cn2C)cc1C(=O)NCC(=O)NCCCCCC[C@@H]1Cc2cc(O)ccc2[C@H]2CC[C@]3(C)[C@@H](O)CC[C@H]3[C@H]12	Active	Active	Active	Active	inactive	4.35 Mequiv	Active	Active		122 µM											IC50 [7]: 0.00099 µM
